Assay results: patent US8846757B2, “Bioactive depside and anthocyanin compounds, compositions, and methods of use” (The Trustees of Columbia University in the City of New York, priority 2006, dated 2014)
Where two headings read alike, the source gives them in different places. Blank lines part the entries; values can stand above or below the compound they belong to.

Key:
[1] = DPPH assay (antiradical activity); details: 400 μM DPPH
Protocol: The DPPH assay was performed on extracts, fractions, and purified compounds as previously described, using 400 μM DPPH (9).
The DPPH assay is an indication of the ability of a substance to scavenge free radicals. Gallic acid is know to be an effective free radical scavenger.

HT29 colon cancer cells [2] = assay: Cytotoxicity assay, HT29; details: read-out: Cytotoxicity IC50 HT29
Protocol: (§1) Colon cancer cell lines HT29, HCT116, and SW480 (10,000 cells) were plated into 24-well plates in Dulbecco's modified Eagle medium (DMEM) containing 10% fetal bovine serum (FBS). […] The plates were washed with PBS once and the attached cells were collected by tripsinization.

[3] = tested on: HCT116 colon cancer cells; assay: Cytotoxicity assay, HCT116; details: read-out: Cytotoxicity IC50 HCT116
Protocol: as §1

[4] = tested on: IL-8 production in human small airway epithelial (SAE) cells; assay: IL-8 immunoassay (ELISA) in SAE cells; assay type: cell-based; details: compound 100 μM, 24 hours; for inhibition at 100 µM: Homo sapiens
Protocol: Human SAE cells were cultured according to supplier instructions (Clonetics, CA) and maintained in a controlled atmosphere of air-5% CO2 at 37° C. Confluent SAE cells at passages 4-8 were used for experiments.
Cigarette smoke extract (CSE) was prepared using a modified protocol (24). Briefly, a Barnet vacuum pump operating at constant flow was used to draw the smoke of one unfiltered 2R1 reference cigarette (University of Kentucky) through 25 mL of Dulbecco's phosphate-buffered saline. This solution (100% CSE) was adjusted to pH 7.4, filtered, diluted with small airway growth medium to a final concentration of 5%, and added to the cells immediately.
Cells were treated with 5% CSE or pure compounds (100 μM), or pretreated with pure compounds 30 minutes prior to 5% CSE exposure. After 24 hours measurement of human IL-8 in cell culture supemates was performed by ELISA (R&D Systems Inc., MN). Statistical analyses were performed by Student's t-test (two-sided) using the JMP Statistics software package (SAS Institute Inc., NC) and defined at the 5% level.

HT29 colon cancer cells [5] = tested on: HT29 colon cancer cells
Protocol: as §1

[6] = tested on: HCT116 colon cancer cells
Protocol: as §1

SW480 colon cancer cells = assay: Cytotoxicity assay, SW480; assay type: cell-based; details: 72 hours, cell count
Protocol: as §1

HT29 colon cancer cells [7] = details: positive controls, refs (8, 19); cited from earlier work
[8] = pretreated 30 minutes prior to 5% CSE

- IC50 [1]: 51.4 µM
Compound: COC(=O)Cc1c(O)cc(O)cc1OC(=O)c1ccc(O)c(O)c1 [Compound 1, methyl 2-[(3,4-dihydroxybenzoyloxy)-4,6-dihydroxyphenyl]acetate]
- IC50 (HT29 colon cancer cells [2]; Homo sapiens, HT-29, 72 h): 65 µM
- IC50 ([3]; Homo sapiens, HCT-116, 72 h): > 100 µM
- inhibition at 100 µM ([4]; no CSE, read-out: IL-8 inhibition in SAE cells, Untreated): 81.3%
- inhibition at 100 µM ([4]; pretreated 30 minutes prior to 5% CSE, read-out: IL-8 inhibition in SAE cells, Treated with 5% CSE): 47.3%

- IC50 [1]: 61.8 µM
- IC50 (HT29 colon cancer cells [5]): > 100 µM
- IC50 [6]: 30 µM
Compound: O=C(O)Cc1c(O)cc(O)cc1OC(=O)c1ccc(O)c(O)c1 [Compound 2, 2-O-(3,4-dihydroxybenzoyl)-2,4,6-trihydroxyphenylacetic acid]
- IL-8 inhibition in SAE cells, Untreated ([4]; no CSE): 74.9%
- IL-8 inhibition in SAE cells, Treated with 5% CSE [4, 8]: 70.3%

Compound: OC[C@H]1O[C@@H](Oc2cc3c(O)cc(O)cc3[o+]c2-c2ccc(O)c(O)c2)[C@H](O)[C@@H](O)[C@@H]1O [Compound 3, cyanidin 3-glucoside]
- IC50 [1]: 28.4 µM
- IC50 (HT29 colon cancer cells [2]; 72 hours, cell count): ~100 µM
- IC50 ([3]; 72 hours, cell count): ~70 µM
- IL-8 inhibition in SAE cells, Untreated ([4]; no CSE): 65.3%
- IL-8 inhibition in SAE cells, Treated with 5% CSE [4, 8]: 36.4%
- IC50 (SW480 colon cancer cells): 90 to 100 µM

Compound: OC[C@H]1O[C@@H](Oc2cc3c(O)cc(O)cc3[o+]c2-c2cc(O)c(O)c(O)c2)[C@H](O)[C@@H](O)[C@@H]1O [Compound 4, delphinidin 3-glucoside]
- IC50 [1]: 26.3 µM
- IC50 (HT29 colon cancer cells [2]; 72 hours, cell count): ~100 µM
- IC50 ([3]; 72 hours, cell count): 12 µM
- IL-8 inhibition in SAE cells, Untreated ([4]; no CSE, 100 µM): Not Detected
- IL-8 inhibition in SAE cells, Treated with 5% CSE [4, 8]: 96.0%
- IC50 (SW480 colon cancer cells): 20 µM

Compound: O=c1[nH]cc(F)c(=O)[nH]1 [Compound 5-FU, 5-fluorouracil, reference compound]
- IC50 (HT29 colon cancer cells [2]; Homo sapiens, HT-29, 72 h): 46.1 µM
- IC50 ([3]; Homo sapiens, HCT-116, 72 h): 45.1 µM
- IC50 (SW480 colon cancer cells; Homo sapiens, SW480): 53 µM

Compound: O=C(O[C@@H]1Cc2c(O)cc(O)cc2O[C@@H]1c1cc(O)c(O)c(O)c1)c1cc(O)c(O)c(O)c1 [EGCG, epigallocatechin gallate]
- HT29 IC50 (HT29 colon cancer cells [7]): 27 µg/mL

- IC50 [1]: 30 ± 2.9 µM
Compound: O=C(O)c1cc(O)c(O)c(O)c1 [Gallic acid, gallic acid, reference compound]

Compound: catechin [reference compound]
- IL-8 inhibition in SAE cells, Untreated ([4]; no CSE): No Change
- IL-8 inhibition in SAE cells, Treated with 5% CSE [4, 8]: 60.3%
